Data from patent publication EP1285919A1, “C10 Carbonate substituted taxanes as antitumor agents” (Florida State University Research Foundation, Inc., priority 2001, dated 2003).
Where two headings read alike, the source gives them in different places.

Assays:
[1] = tested on: A2780 Human Ovarian Carcinoma Xenografts; test: In vivo evaluation against A2780 ovarian carcinoma xenografts; set-up: species or system NCr-nude mice; Mean Score: scale not given here; details: for MDS (n): 2.0 g endpoint
Protocol: In Vivo Evaluation of Antitumor Compounds Against A2780 Human Ovarian Carcinoma Xenografts
The A2780 group mean size range was 237-243 mg. Dosing was initiated on Day 1. […] Treatment groups are detailed in Table 5.

[2] = tested on: VM46 Human Colon Carcinoma; test: In vivo evaluation against VM46 colon carcinoma xenografts; set-up: species or system NCr-nude mice; Mean Score: scale not given here
Protocol: In Vivo Evaluation of Antitumor Compounds Against VM46 Human Colon Carcinoma
The VM46 tumor group mean size range was 181-188 mg. Dosing was initiated on Day 1. […] Taxotere was given i.v. at a dose of 70 mg/kg on a qd x 1 schedule. […] The study was terminated on Day 64. Treatment groups are detailed in Table 11.

[3] = tested on: HCT116; test: In vitro cytotoxicity, cell colony formation assay; type: cell-based; details: read-out: IN VITRO ID 50
Protocol: In Vitro cytotoxicity measured by the cell colony formation assay
Four hundred cells (HCT116) were plated in 60 mm Petri dishes containing 2.7 mL of medium (modified McCoy's 5a medium containing 10% fetal bovine serum and 100 units/mL penicillin and […] streptomycin). The cells were incubated in a CO2 incubator at 37 °C for 5 h for attachment to the bottom of Petri dishes. The compounds identified in Example 2 were made up fresh in medium at ten times the final concentration, and then 0.3 mL of this stock solution was added to the 2.7 mL of medium in the dish. The cells were then incubated with drugs for 72 h at 37 ° C. At the end of incubation the drug-containing media were decanted, the dishes were rinsed with 4 mL of Hank's Balance Salt Solution (HBSS), 5 mL of fresh medium was added, and the dishes were returned to the incubator for colony formation. The cell colonies were counted using a colony counter after incubation for 7 days.

[4] = tested on: DU 145 Human Prostrate Carcinoma Xenografts; test: In vivo evaluation against DU145 prostate carcinoma xenografts
Protocol: In Vivo Evaluation of Antitumor Compounds Against DU 145 Human Prostrate Carcinoma Xenografts
(§1) Antitumor compounds were prepared in a vehicle of 5% ethanol, 5% Cremophor and 90% isotonic saline in the manner as described for Solution 1 of Example 10. Taxol (paclitaxel; Bristol Meyers Squibb) was obtained as the marketed pharmaceutical drug. The dosing volume was 0.3 ml per 20 g mouse.
Male NCr-nude mice were implanted subcutaneously with 1 mm^3 DU145 prostate carcinoma fragments in the flank and sorted into treatment groups of five mice each. […] Dosing was initiated on Day 1. The antitumor compounds were given i.v. at an estimated maximum tolerated dose (MTD) appropriate for each agent on a qd x 1 schedule (single administration of compound). The i.v. Taxol was given on the qd x 1 schedule as two split doses (one hour between) of 12 mg/kg per split dose (total dose = 24 mg/kg). Taxol was also administered intraperitoneally (i.p.) on a qd x 5 schedule at a daily dose of 18 mg/kg. The vehicle was administered i.v. to control mice in Group 1 on the qd x 1 schedule. The study was terminated on Day 91. Treatment groups are detailed in Table 3.
(§2) The mean days of survival is the number of days after which a neoplasm reached a size of 1.5 g and the animal was euthanized. A complete response is obtained […]. […]

[5] = tested on: Panc-1 Human Pancreatic Carcinoma; test: In vivo evaluation against Panc-1 pancreatic carcinoma xenografts; details: for MDS (n): 1.5 g endpoint
Protocol: In Vivo Evaluation of Antitumor Compounds Against Panc-1 Human Pancreatic Carcinoma
as §1
Female NCr-nude mice were implanted subcutaneously with 1 mm^3 Panc-1 pancreatic carcinoma fragments in the flank and sorted into treatment groups of six mice each. […] Dosing was initiated on Day 1. The antitumor compounds were given i.v. at an estimated maximum tolerated dose (MTD) appropriate for each agent on a qd x 1 schedule (single administration of compound). The i.v. taxol was given on the qd x 1 schedule as two split doses (one hour between) of 12 mg/kg per split dose (total dose = 24 mg/kg). Taxol was also administered at a dose of 15 mg/kg i.p. on a qd x 5 schedule. The vehicle was administered i.v. to control mice in Group 1 on the qd x 1 schedule. The study was terminated on Day 63. Treatment groups are detailed in Table 9.
as §2, with “The results are summarized in Table 10 and include mean days of survival (MDS), number of toxic deaths, number of survivors, number of complete or partial responses, and number with stable disease. The” for “The”

[6] = 1781 i.v. qd x 1 at estimated MTD
[7] = Group 4: 60.6 mg/kg i.v. qd x 1, 5 mice, study to Day 60
[8] = Group 4: 60 mg/kg i.v. qd x 1, 6 mice, study to Day 64
[9] = Group 4: i.v. qd x 1 at estimated MTD, 5 mice, study to Day 91
[10] = Group 4: 60 mg/kg i.v. qd x 1, 6 mice, study to Day 63
[11] = Group 2: 24 mg/kg i.v. qd x 1 (two split doses of 12 mg/kg), 5 mice, study to Day 60
[12] = Group 3: 15 mg/kg i.p. qd x 5, 5 mice, study to Day 60
[13] = Group 2: 24 mg/kg i.v. qd x 1 (two split doses of 12 mg/kg), 6 mice, study to Day 64
[14] = Group 3: 15 mg/kg i.p. qd x 5, 6 mice, study to Day 64
[15] = number of cases, Taxol 24 mg/kg i.v. qd x 1, six mice
[16] = Group 2: 24 mg/kg i.v. qd x 1 (two split doses of 12 mg/kg), 5 mice, study to Day 91
[17] = Group 3: 18 mg/kg i.p. qd x 5, 5 mice, study to Day 91
[18] = Group 2: 24 mg/kg i.v. qd x 1 (two split doses of 12 mg/kg), 6 mice, study to Day 63
[19] = Group 3: 15 mg/kg i.p. qd x 5, 6 mice, study to Day 63

SMILES: CCOC(=O)O[C@H]1C(=O)[C@@]2(C)[C@H]([C@H](OC(=O)c3ccccc3)[C@]3(O)C[C@H](OC(=O)[C@H](O)[C@H](C=C(C)C)NC(=O)OC(C)(C)C)C(C)=C1C3(C)C)[C@]1(OC(C)=O)CO[C@@H]1C[C@@H]2O [Compound 1781]
- total response rate [1, 6]: at least 20%
- partial responses ([1]; 1781 i.v. qd x 1 at estimated MTD, five mice treated): 2
- MDS (n) ([1]; Group 4: 60.6 mg/kg i.v. qd x 1, 5 mice, n=2, study to Day 60): 38.5 ± 8.3 (2) days
- Complete Response [1, 7]: 0
- Mean Score [1, 7]: 6 ± 1.3
- Partial Response [1, 7]: 2
- Stable Disease [1, 7]: 1
- Survivors [1, 7]: 3
- Toxic Deaths [1, 7]: 0
- Toxic Deaths ([2]; 1781 i.v. qd x 1, six mice): no toxic deaths
- response rate [2, 6]: 16.7%
- MDS (n) ([2]; Group 4: 60 mg/kg i.v. qd x 1, 6 mice, n=5, 1.5 g endpoint, study to Day 64): 42.2 ± 7.1(5) days
- Complete Response [2, 8]: 0
- Mean Score [2, 8]: 3 ± 1.2
- Partial Response [2, 8]: 1
- Stable Disease [2, 8]: 0
- Toxic Deaths [2, 8]: 0
- tolerability ([2]; mouse, in vivo, iv): well-tolerated
- IC50 ([3]; HCT116, 72 h with drug, colonies counted after 7 days, concentration producing 50% inhibition of colony formation): < 1 nM
- weight loss ([4]; 1781 72.6 mg/kg i.v. qd x 1, in a number of treated mice prior to death): over 20%
- Complete Response [4, 9]: 0
- Mean Score [4, 9]: 0 ± 0
- Partial Response [4, 9]: 0
- Stable Disease [4, 9]: 0
- Survivors [4, 9]: 0
- Toxic Deaths [4, 9]: 5
- overall response rate [5, 6]: 66.7%
- MDS (n) ([5]; Group 4: 60 mg/kg i.v. qd x 1, 6 mice, n=2, study to Day 63): 59.3 ± 2.9(2) days
- Complete Response [5, 10]: 0
- Mean Score [5, 10]: 6.7 ± 1.2
- Partial Response [5, 10]: 4
- Stable Disease [5, 10]: 0
- Survivors [5, 10]: 4
- Toxic Deaths [5, 10]: 0
- Toxic Deaths ([5]; i.v. qd x 1, Taxol 24 mg/kg, 1781 at estimated MTD, six mice per group): no toxic deaths
- mean group weight loss ([5]; mouse, in vivo, iv): minimal
- tolerability ([5]; mouse, in vivo, iv): well-tolerated

SMILES: CC(=O)O[C@H]1C(=O)[C@@]2(C)[C@H]([C@H](OC(=O)c3ccccc3)[C@]3(O)C[C@H](OC(=O)[C@H](O)[C@@H](NC(=O)c4ccccc4)c4ccccc4)C(C)=C1C3(C)C)[C@]1(OC(C)=O)CO[C@@H]1C[C@@H]2O [Taxol]
- MDS (n) ([1]; Group 2: 24 mg/kg i.v. qd x 1 (two split doses of 12 mg/kg), 5 mice, n=5, study to Day 60): 21.9 ± 5.5 (5) days
- Complete Response [1, 11]: 0
- Mean Score [1, 11]: 1.8 ± 0.4
- Partial Response [1, 11]: 0
- Stable Disease [1, 11]: 0
- Survivors [1, 11]: 1
- Toxic Deaths [1, 11]: 0
- Complete Response [1, 12]: 0
- Mean Score [1, 12]: 0.6 ± 0.6
- Partial Response [1, 12]: 0
- Stable Disease [1, 12]: 0
- Survivors [1, 12]: 0
- Toxic Deaths [1, 12]: 4
- mice succumbed to drug-related side effects ([1]; Taxol 15 mg/kg i.p. qd x 5, five mice): four
- increase in survival / survival extension compared to Group 1 controls ([1]; i.v. qd x 1, Taxol 24 mg/kg, Taxotere 70 mg/kg): 87%
- MDS ([1]; i.v. qd x 1, Taxol 24 mg/kg, Taxotere 70 mg/kg, 2.0 g cut-off): 21.9 days
- Stable Disease ([1]; number of animals, Taxol 24 mg/kg i.v. qd x 1, Day 61): One
- MDS (n) ([2]; Group 2: 24 mg/kg i.v. qd x 1 (two split doses of 12 mg/kg), 6 mice, n=4, 1.5 g endpoint, study to Day 64): 43.3 ± 3.7 (4) days
- Complete Response [2, 13]: 0
- Mean Score [2, 13]: 3.8 ± 1.4
- Partial Response [2, 13]: 1
- Stable Disease [2, 13]: 1
- Toxic Deaths [2, 13]: 0
- MDS (n) ([2]; Group 3: 15 mg/kg i.p. qd x 5, 6 mice, n=2, 1.5 g endpoint, study to Day 64): 36.1 ± 12.2(2) days
- Complete Response [2, 14]: 0
- Mean Score [2, 14]: 1.8 ± 1.3
- Partial Response [2, 14]: 1
- Stable Disease [2, 14]: 0
- Toxic Deaths [2, 14]: 3
- mortalities ([2]; Taxol 15 mg/kg i.p. qd x 5, six treated animals): three
- MDS ([2]; i.v. qd x 1, Taxol 24 mg/kg (four mice), Taxotere 70 mg/kg, 1.5 g endpoint): 43.3 days
- Stable Disease [2, 15]: one
- Partial Response ([2]; number of mice, Taxol 24 mg/kg i.v. qd x 1, six mice): one
- IC50 ([3]; Homo sapiens, HCT-116): 2.1 nM
- MDS (n) ([4]; Group 2: 24 mg/kg i.v. qd x 1 (two split doses of 12 mg/kg), 5 mice, n=3, 1.5 g endpoint, study to Day 91): 37.4 ± 8.9 (3) days
- Complete Response [4, 16]: 0
- Mean Score [4, 16]: 2 ± 1
- Partial Response [4, 16]: 0
- Stable Disease [4, 16]: 1
- Survivors [4, 16]: 1
- Toxic Deaths [4, 16]: 1
- Complete Response [4, 17]: 0
- Mean Score [4, 17]: 0 ± 0
- Partial Response [4, 17]: 0
- Stable Disease [4, 17]: 0
- Survivors [4, 17]: 0
- Toxic Deaths [4, 17]: 5
- weight loss ([4]; Taxol 18 mg/kg i.p. qd x 5): more than 20%
- mice died of drug-related side effects ([4]; Taxol 18 mg/kg i.p. qd x 5, five mice): five
- increase in survival compared to Group 1 controls ([4]; Taxol 24 mg/kg i.v. qd x 1): 9%
- MDS ([4]; Taxol 24 mg/kg i.v. qd x 1, 1.5 g endpoint, three of five animals): 37.4 days
- MDS (n) ([5]; Group 2: 24 mg/kg i.v. qd x 1 (two split doses of 12 mg/kg), 6 mice, n=4, study to Day 63): 34.7 ± 3.4(4) days
- Complete Response [5, 18]: 0
- Mean Score [5, 18]: 2.2 ± 0.8
- Partial Response [5, 18]: 0
- Stable Disease [5, 18]: 1
- Survivors [5, 18]: 1
- Complete Response [5, 19]: 0
- Mean Score [5, 19]: 1.2 ± 1.2
- Partial Response [5, 19]: 1
- Stable Disease [5, 19]: 0
- Survivors [5, 19]: 1
- MDS ([5]; Taxol 24 mg/kg i.v. qd x 1, four mice, 1.5 g cut-off): 34.7 days
- Toxic Deaths ([5]; female, NCr-nude, mouse, in vivo): 1
- Toxic Deaths ([5]; female, NCr-nude, mouse, in vivo, ip, 15 mg/kg): 4
- Stable Disease [5, 15]: one
